Data as given in US12121521B2, “Uses of salt-inducible kinase (SIK) inhibitors for treating osteoporosis” (The General Hospital Corporation, priority 2016, dated 2024).

Legend:
Assay in all cases: ScanEDGE kinase panel (DiscoverX)
Assay type in all cases: binding
SRPK3 = target: T1, SRPK3 (Homo sapiens, UniProt Q9UPE1); details: read-out: % of control activity at 71 nM
T1 construct: T7 phage fusion (most kinases) or DNA tag after HEK-293 expression; purchased DiscoverX (Fremont, CA), ScanEDGE; host or cells: T7 phage in E. coli BL21-derived host, or HEK-293
Procedure: (§1) ScanEDGE kinase assays paneling specificity across a panel of 96 representative kinases were performed by DiscoverX (Fremont, CA). For most assays, kinase-tagged T7 phage strains were grown in parallel in 24-well blocks in an E. coli host derived from the BL21 strain. Bacteria were grown to log phase and infected with T7 phage from frozen stock (MOI=0.4) and incubated with shaking at 32° C. until lysis (90-150 minutes). The lysates were centrifuged (6000×g) and filtered (0.2 μm) to remove cell debris. The remaining kinases were produced in HEK-293 cells and subsequently tagged with DNA for qPCR detection. […] The liganded beads were blocked with excess biotin and washing with blocking buffer (SeaBlock (Pierce), 1% BSA, 0.05% Tween 20, 1 mM DTT) to remove unbound ligand and to reduce non-specific phage binding. […] Test compounds were prepared as 40× stocks in 100% DMSO and directly diluted into the assay. All reactions were performed in polypropylene 384 well plates in a final volume of 40 μl. […] The kinase concentration in the eluates was measured by qPCR.

JNK1 = target: T2, JNK1 (Homo sapiens, UniProt P45983); details: read-out: % of control activity at 71 nM
T2 construct: T7 phage fusion (most kinases) or DNA tag for qPCR (HEK-293-made kinases); purchased DiscoverX; host or cells: E. coli BL21-derived host (T7 phage) or HEK-293
Procedure: as §1

MEK1 = target: T3, MEK1 (Homo sapiens, UniProt Q02750); details: read-out: % of control activity at 71 nM
T3 construct: T7 phage fusion (most kinases) or DNA tag for qPCR (kinases made in HEK-293); purchased DiscoverX; host or cells: E. coli BL21-derived host (T7 phage) or HEK-293
T3 sequence (Q02750 whole entry, the tested form may be a part): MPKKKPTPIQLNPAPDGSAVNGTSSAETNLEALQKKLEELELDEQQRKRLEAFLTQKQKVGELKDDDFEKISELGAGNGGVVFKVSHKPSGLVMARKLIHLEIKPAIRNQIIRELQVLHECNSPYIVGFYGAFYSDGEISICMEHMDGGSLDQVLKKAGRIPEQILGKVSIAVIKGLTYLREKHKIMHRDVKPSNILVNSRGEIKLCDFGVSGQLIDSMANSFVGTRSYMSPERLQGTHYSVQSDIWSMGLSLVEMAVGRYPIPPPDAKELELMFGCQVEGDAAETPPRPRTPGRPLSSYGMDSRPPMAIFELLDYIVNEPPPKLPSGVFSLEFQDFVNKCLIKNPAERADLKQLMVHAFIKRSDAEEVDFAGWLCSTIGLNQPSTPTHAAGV
Procedure: as §1

PDPK1 = target: T4, PDPK1 (Homo sapiens, UniProt O15530); details: read-out: % of control activity at 71 nM
T4 construct: T7 phage fusion (most kinases) or DNA tag for qPCR (kinases made in HEK-293); purchased DiscoverX; host or cells: E. coli BL21-derived host (T7 phage) or HEK-293
Procedure: as §1

RET = target: T5, RET (Homo sapiens, UniProt P07949); details: read-out: % of control activity at 71 nM
T5 construct: T7 phage fusion (most kinases) or DNA tag after HEK-293 expression; purchased DiscoverX (Fremont, CA), ScanEDGE; host or cells: T7 phage in E. coli BL21-derived host, or HEK-293
Procedure: as §1

PRKCE = target: T6, PRKCE (Homo sapiens, UniProt Q02156); details: read-out: % of control activity at 71 nM
T6 construct: T7 phage fusion (most kinases) or DNA tag for qPCR (kinases made in HEK-293); purchased DiscoverX; host or cells: E. coli BL21-derived host (T7 phage) or HEK-293
Procedure: as §1

ABL1 = target: T7, ABL1 (Homo sapiens, UniProt P00519); details: read-out: % of control activity at 71 nM
T7 construct: T7 phage fusion (most kinases) or DNA tag for qPCR (HEK-293-made kinases); purchased DiscoverX (Fremont, CA); host or cells: E. coli BL21-derived host (T7 phage) or HEK-293
T7 sequence (P00519 whole entry, the tested form may be a part): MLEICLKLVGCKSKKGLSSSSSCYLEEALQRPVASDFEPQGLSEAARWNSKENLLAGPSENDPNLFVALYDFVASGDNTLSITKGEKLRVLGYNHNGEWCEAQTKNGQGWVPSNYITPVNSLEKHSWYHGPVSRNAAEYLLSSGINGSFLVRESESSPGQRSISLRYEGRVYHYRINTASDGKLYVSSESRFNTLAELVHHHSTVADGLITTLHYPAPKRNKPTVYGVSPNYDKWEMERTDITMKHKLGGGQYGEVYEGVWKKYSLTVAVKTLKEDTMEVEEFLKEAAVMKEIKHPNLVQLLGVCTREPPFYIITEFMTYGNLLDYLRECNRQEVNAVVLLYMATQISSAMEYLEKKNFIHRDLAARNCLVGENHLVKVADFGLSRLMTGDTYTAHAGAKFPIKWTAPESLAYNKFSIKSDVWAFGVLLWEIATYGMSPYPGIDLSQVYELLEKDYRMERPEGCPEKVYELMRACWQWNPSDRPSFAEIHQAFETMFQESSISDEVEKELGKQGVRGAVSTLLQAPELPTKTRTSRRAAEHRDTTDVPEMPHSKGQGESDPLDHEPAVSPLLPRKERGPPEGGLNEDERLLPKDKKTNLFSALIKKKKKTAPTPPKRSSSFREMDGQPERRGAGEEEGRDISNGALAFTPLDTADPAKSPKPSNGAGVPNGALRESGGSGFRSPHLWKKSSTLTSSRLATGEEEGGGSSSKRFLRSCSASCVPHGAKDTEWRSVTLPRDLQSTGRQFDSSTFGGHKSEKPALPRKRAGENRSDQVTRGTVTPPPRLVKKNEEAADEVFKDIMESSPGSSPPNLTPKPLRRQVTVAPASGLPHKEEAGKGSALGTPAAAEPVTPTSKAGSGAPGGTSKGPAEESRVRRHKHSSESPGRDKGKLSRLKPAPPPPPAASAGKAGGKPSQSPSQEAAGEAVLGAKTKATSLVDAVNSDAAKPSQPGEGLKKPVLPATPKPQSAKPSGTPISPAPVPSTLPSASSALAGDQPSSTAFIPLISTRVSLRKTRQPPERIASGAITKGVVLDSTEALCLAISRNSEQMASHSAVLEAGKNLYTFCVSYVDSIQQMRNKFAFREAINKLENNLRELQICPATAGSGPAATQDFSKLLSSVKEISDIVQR
Procedure: as §1

GSK3B = target: T8, GSK3B (Homo sapiens, UniProt P49841); details: read-out: % of control activity at 71 nM
T8 construct: T7 phage fusion (most kinases) or DNA tag for qPCR (HEK-293-made kinases); purchased DiscoverX; host or cells: E. coli BL21-derived host (T7 phage) or HEK-293
Procedure: as §1

EGFR = target: T9, EGFR (Homo sapiens, UniProt P00533); details: read-out: % of control activity at 71 nM
T9 construct: T7 phage fusion (most kinases) or DNA tag for qPCR (HEK-293-made kinases); purchased DiscoverX (Fremont, CA); host or cells: E. coli BL21-derived host (T7 phage) or HEK-293
Procedure: as §1

CDK7 = target: T10, CDK7 (Homo sapiens, UniProt P50613); details: read-out: % of control activity at 71 nM
T10 construct: T7 phage fusion (most kinases) or DNA tag for qPCR (HEK-293-made kinases); purchased DiscoverX (Fremont, CA); host or cells: E. coli BL21-derived host (T7 phage) or HEK-293
Procedure: as §1

BRSK1 = target: T11, BRSK1 (Homo sapiens, UniProt Q8TDC3); details: read-out: % of control activity at 71 nM
T11 construct: T7 phage fusion (most kinases) or DNA tag for qPCR (HEK-293-made kinases); purchased DiscoverX (Fremont, CA); host or cells: E. coli BL21-derived host (T7 phage) or HEK-293
Procedure: as §1

TSSK1B = target: T12, TSSK1B (Homo sapiens, UniProt Q9BXA7); details: read-out: % of control activity at 71 nM
T12 construct: T7 phage fusion (most kinases) or DNA tag after HEK-293 expression; purchased DiscoverX (Fremont, CA), ScanEDGE; host or cells: T7 phage in E. coli BL21-derived host, or HEK-293
T12 sequence (Q9BXA7 whole entry, the tested form may be a part): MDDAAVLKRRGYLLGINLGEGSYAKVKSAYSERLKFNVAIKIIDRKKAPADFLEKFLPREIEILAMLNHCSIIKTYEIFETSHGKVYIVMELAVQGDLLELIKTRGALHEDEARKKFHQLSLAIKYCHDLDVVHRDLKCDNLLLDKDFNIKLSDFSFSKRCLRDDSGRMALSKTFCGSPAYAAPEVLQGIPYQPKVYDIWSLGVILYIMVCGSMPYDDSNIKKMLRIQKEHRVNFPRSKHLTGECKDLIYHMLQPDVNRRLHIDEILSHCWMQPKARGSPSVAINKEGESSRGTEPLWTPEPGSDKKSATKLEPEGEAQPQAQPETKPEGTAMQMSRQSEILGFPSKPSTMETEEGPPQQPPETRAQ
Procedure: as §1

CDK2 = target: T13, CDK2 (Homo sapiens, UniProt P24941); details: read-out: % of control activity at 71 nM
T13 construct: T7 phage fusion (most kinases) or DNA tag for qPCR (HEK-293-made kinases); purchased DiscoverX (Fremont, CA); host or cells: E. coli BL21-derived host (T7 phage) or HEK-293
Procedure: as §1

IKK-beta = target: T14, IKK-beta (Homo sapiens, UniProt O14920); details: read-out: % of control activity at 71 nM
T14 construct: T7 phage fusion (most kinases) or DNA tag for qPCR (HEK-293-made kinases); purchased DiscoverX; host or cells: E. coli BL21-derived host (T7 phage) or HEK-293
T14 sequence (O14920 whole entry, the tested form may be a part): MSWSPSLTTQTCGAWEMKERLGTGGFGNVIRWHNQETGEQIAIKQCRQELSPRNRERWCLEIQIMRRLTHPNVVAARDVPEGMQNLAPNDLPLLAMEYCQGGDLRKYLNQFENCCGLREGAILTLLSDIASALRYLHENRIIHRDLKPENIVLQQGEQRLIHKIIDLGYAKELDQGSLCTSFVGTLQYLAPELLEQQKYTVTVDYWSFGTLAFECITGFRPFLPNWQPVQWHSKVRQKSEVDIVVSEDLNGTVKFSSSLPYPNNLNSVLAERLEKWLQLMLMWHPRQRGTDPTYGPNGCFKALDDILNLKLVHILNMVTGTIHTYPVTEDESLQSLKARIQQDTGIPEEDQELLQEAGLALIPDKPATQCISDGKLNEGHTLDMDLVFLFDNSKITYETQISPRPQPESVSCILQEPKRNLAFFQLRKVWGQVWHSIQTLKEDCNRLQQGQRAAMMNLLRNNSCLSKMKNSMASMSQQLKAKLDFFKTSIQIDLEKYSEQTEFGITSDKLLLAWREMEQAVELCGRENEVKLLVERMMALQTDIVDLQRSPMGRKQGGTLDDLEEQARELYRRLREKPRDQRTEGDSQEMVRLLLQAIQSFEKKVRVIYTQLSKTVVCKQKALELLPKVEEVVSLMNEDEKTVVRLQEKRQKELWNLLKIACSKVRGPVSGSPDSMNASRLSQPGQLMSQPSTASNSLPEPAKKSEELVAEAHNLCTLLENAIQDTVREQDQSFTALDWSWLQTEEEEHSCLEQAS
Procedure: as §1

JNK2 = target: T15, JNK2 (Homo sapiens, UniProt P45984); details: read-out: % of control activity at 71 nM
T15 construct: T7 phage fusion (most kinases) or DNA tag for qPCR (HEK-293-made kinases); purchased DiscoverX; host or cells: E. coli BL21-derived host (T7 phage) or HEK-293
Procedure: as §1

PDGFRB = target: T16, PDGFRB (Homo sapiens, UniProt P09619); details: read-out: % of control activity at 71 nM
T16 construct: T7 phage fusion (most kinases) or DNA tag for qPCR (kinases made in HEK-293); purchased DiscoverX; host or cells: E. coli BL21-derived host (T7 phage) or HEK-293
Procedure: as §1

ACVR1B = target: T17, ACVR1B (Homo sapiens, UniProt P36896); details: read-out: % of control activity at 71 nM
T17 construct: T7 phage fusion (most kinases) or DNA tag for qPCR (HEK-293-made kinases); purchased DiscoverX (Fremont, CA); host or cells: E. coli BL21-derived host (T7 phage) or HEK-293
Procedure: as §1

MEK2 = target: T18, MEK2 (Homo sapiens, UniProt P36507); details: read-out: % of control activity at 71 nM
T18 construct: T7 phage fusion (most kinases) or DNA tag for qPCR (kinases made in HEK-293); purchased DiscoverX; host or cells: E. coli BL21-derived host (T7 phage) or HEK-293
T18 sequence (P36507 whole entry, the tested form may be a part): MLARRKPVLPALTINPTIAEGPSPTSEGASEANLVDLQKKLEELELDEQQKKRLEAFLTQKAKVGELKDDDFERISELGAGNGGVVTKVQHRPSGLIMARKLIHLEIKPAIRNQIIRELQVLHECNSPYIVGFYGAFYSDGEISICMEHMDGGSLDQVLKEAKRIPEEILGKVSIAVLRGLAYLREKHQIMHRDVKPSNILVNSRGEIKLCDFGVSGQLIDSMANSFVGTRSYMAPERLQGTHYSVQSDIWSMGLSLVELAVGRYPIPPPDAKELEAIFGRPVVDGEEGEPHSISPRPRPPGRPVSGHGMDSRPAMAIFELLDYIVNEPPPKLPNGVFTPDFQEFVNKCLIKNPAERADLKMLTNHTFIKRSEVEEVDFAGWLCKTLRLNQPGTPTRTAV
Procedure: as §1

p38-beta = target: T19, p38-beta (Homo sapiens, UniProt Q15759); details: read-out: % of control activity at 71 nM
T19 construct: T7 phage fusion (most kinases) or DNA tag for qPCR (kinases made in HEK-293); purchased DiscoverX; host or cells: E. coli BL21-derived host (T7 phage) or HEK-293
T19 sequence (Q15759 whole entry, the tested form may be a part): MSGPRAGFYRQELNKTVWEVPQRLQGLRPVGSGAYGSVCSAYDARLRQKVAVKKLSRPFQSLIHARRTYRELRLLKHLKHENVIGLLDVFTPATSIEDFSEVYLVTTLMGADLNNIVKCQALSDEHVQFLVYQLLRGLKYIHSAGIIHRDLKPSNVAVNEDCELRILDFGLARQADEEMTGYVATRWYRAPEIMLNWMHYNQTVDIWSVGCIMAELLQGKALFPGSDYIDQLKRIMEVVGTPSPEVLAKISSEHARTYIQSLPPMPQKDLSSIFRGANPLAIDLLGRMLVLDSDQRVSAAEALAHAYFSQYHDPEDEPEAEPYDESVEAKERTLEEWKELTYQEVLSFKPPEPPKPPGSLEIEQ
Procedure: as §1

JAK2 = target: T20, JAK2 (Homo sapiens, UniProt O60674); details: read-out: % of control activity at 71 nM
T20 construct: T7 phage fusion (most kinases) or DNA tag for qPCR (HEK-293-made kinases); purchased DiscoverX; host or cells: E. coli BL21-derived host (T7 phage) or HEK-293
T20 sequence (O60674 840-1132 limits assumed): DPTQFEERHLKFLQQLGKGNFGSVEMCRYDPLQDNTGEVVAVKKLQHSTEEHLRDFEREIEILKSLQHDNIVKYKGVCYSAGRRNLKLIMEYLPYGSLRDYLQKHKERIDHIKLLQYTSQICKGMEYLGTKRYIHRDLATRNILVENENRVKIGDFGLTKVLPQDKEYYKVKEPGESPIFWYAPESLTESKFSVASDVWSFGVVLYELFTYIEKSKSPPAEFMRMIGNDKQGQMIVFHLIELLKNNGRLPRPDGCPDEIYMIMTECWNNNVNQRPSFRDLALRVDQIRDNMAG
Procedure: as §1

MAP3K4 = target: T21, MAP3K4 (Homo sapiens, UniProt Q9Y6R4); details: read-out: % of control activity at 71 nM
T21 construct: T7 phage fusion (most kinases) or DNA tag for qPCR (HEK-293-made kinases); purchased DiscoverX; host or cells: E. coli BL21-derived host (T7 phage) or HEK-293
Procedure: as §1

MKNK1 = target: T22, MKNK1 (Homo sapiens, UniProt Q9BUB5); details: read-out: % of control activity at 71 nM
T22 construct: T7 phage fusion (most kinases) or DNA tag for qPCR (kinases made in HEK-293); purchased DiscoverX; host or cells: E. coli BL21-derived host (T7 phage) or HEK-293
Procedure: as §1

PLK1 = target: T23, PLK1 (Homo sapiens, UniProt P53350); details: read-out: % of control activity at 71 nM
T23 construct: T7 phage fusion (most kinases) or DNA tag for qPCR (kinases made in HEK-293); purchased DiscoverX; host or cells: E. coli BL21-derived host (T7 phage) or HEK-293
Procedure: as §1

PCTK1 = target: T24, PCTK1 (Homo sapiens, UniProt Q00536); details: read-out: % of control activity at 71 nM
T24 construct: T7 phage fusion (most kinases) or DNA tag for qPCR (kinases made in HEK-293); purchased DiscoverX; host or cells: E. coli BL21-derived host (T7 phage) or HEK-293
T24 sequence (Q00536 whole entry, the tested form may be a part): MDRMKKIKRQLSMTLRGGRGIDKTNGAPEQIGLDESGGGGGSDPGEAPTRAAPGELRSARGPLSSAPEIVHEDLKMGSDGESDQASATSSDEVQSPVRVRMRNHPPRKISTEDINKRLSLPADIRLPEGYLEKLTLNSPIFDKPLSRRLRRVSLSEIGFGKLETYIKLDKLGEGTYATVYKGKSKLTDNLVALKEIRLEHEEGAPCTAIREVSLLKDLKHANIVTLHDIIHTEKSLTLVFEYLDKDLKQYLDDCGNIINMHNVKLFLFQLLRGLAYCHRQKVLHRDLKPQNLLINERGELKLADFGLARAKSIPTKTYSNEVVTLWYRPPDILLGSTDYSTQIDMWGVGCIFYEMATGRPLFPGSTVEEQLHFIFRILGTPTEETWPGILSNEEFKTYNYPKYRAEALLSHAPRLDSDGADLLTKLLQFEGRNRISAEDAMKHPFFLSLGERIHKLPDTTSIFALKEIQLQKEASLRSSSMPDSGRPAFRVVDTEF
Procedure: as §1

MARK1 = target: T25, MARK1 (Homo sapiens, UniProt Q9P0L2); details: read-out: % of control activity at 71 nM
T25 construct: T7 phage fusion (most kinases) or DNA tag for qPCR (HEK-293-made kinases); purchased DiscoverX; host or cells: E. coli BL21-derived host (T7 phage) or HEK-293
Procedure: as §1

p38-alpha = target: T26, p38-alpha (Homo sapiens, UniProt Q16539); details: read-out: % of control activity at 71 nM
T26 construct: T7 phage fusion (most kinases) or DNA tag for qPCR (kinases made in HEK-293); purchased DiscoverX; host or cells: E. coli BL21-derived host (T7 phage) or HEK-293
Procedure: as §1

TIE2 = target: T27, TIE2 (Homo sapiens, UniProt Q02763); details: read-out: % of control activity at 71 nM
T27 construct: T7 phage fusion (most kinases) or DNA tag after HEK-293 expression; purchased DiscoverX (Fremont, CA), ScanEDGE; host or cells: T7 phage in E. coli BL21-derived host, or HEK-293
Procedure: as §1

DCAMKL1 = target: T28, DCAMKL1 (Homo sapiens, UniProt O15075); details: read-out: % of control activity at 71 nM
T28 construct: T7 phage fusion (most kinases) or DNA tag for qPCR (HEK-293-made kinases); purchased DiscoverX (Fremont, CA); host or cells: E. coli BL21-derived host (T7 phage) or HEK-293
Procedure: as §1

AKT1 = target: T29, AKT1 (Homo sapiens, UniProt P31749); details: read-out: % of control activity at 71 nM
T29 construct: T7 phage fusion (most kinases) or DNA tag for qPCR (HEK-293-made kinases); purchased DiscoverX (Fremont, CA); host or cells: E. coli BL21-derived host (T7 phage) or HEK-293
T29 sequence (P31749 whole entry, the tested form may be a part): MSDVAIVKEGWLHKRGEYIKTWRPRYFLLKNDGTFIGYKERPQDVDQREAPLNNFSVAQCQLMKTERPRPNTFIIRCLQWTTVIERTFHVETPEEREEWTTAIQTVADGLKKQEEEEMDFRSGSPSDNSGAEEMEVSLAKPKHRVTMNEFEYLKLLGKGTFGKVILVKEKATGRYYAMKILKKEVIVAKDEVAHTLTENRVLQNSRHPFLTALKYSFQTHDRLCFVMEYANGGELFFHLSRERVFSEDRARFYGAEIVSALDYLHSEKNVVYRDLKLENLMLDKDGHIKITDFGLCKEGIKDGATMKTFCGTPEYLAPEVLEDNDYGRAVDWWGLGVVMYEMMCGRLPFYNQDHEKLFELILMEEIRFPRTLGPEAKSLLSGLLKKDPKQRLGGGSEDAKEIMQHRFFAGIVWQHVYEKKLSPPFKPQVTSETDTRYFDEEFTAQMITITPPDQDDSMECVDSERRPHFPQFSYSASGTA
Procedure: as §1

SIK (SIK1) = target: T30, SIK (SIK1) (Homo sapiens, UniProt P57059); details: SIK refers to SIK1, read-out: % of control activity at 71 nM
T30 construct: T7 phage fusion (most kinases) or DNA tag after HEK-293 expression; purchased DiscoverX (Fremont, CA), ScanEDGE; host or cells: T7 phage in E. coli BL21-derived host, or HEK-293
Procedure: as §1

MAPKAPK2 = target: T31, MAPKAPK2 (Homo sapiens, UniProt P49137); details: read-out: % of control activity at 71 nM
T31 construct: T7 phage fusion (most kinases) or DNA tag for qPCR (HEK-293-made kinases); purchased DiscoverX; host or cells: E. coli BL21-derived host (T7 phage) or HEK-293
Procedure: as §1

PLK3 = target: T32, PLK3 (Homo sapiens, UniProt Q9H4B4); details: read-out: % of control activity at 71 nM
T32 construct: T7 phage fusion (most kinases) or DNA tag for qPCR (kinases made in HEK-293); purchased DiscoverX; host or cells: E. coli BL21-derived host (T7 phage) or HEK-293
Procedure: as §1

COc1ccc(N2C(=O)N(c3c(C)cccc3C)Cc3cnc(Nc4ccc(C5CCN(C)CC5)c(OC)c4)nc32)c(OC)c1 [YKL-05-093]
remaining binding at 0.071 µM (SRPK3): 88%
remaining binding at 0.071 µM (JNK1): 97%
remaining binding at 0.071 µM (MEK1): 20%
remaining binding at 0.071 µM (PDPK1): 55%
remaining binding at 0.071 µM (RET): 3.6%
remaining binding at 0.071 µM (PRKCE): 92%
remaining binding at 0.071 µM (ABL1): 0.2%
remaining binding at 0.071 µM (GSK3B): 68%
remaining binding at 0.071 µM (EGFR): 5.9%
remaining binding at 0.071 µM (CDK7): 85%
remaining binding at 0.071 µM (BRSK1): 74%
remaining binding at 0.071 µM (TSSK1B): 83%
remaining binding at 0.071 µM (CDK2): 99%
remaining binding at 0.071 µM (IKK-beta): 84%
remaining binding at 0.071 µM (JNK2): 89%
remaining binding at 0.071 µM (PDGFRB): 0.35%
remaining binding at 0.071 µM (ACVR1B): 50%
remaining binding at 0.071 µM (MEK2): 12%
remaining binding at 0.071 µM (p38-beta): 47%
remaining binding at 0.071 µM (JAK2): 13%
remaining binding at 0.071 µM (MAP3K4): 60%
remaining binding at 0.071 µM (MKNK1): 76%
remaining binding at 0.071 µM (PLK1): 100%
remaining binding at 0.071 µM (PCTK1): 91%
remaining binding at 0.071 µM (MARK1): 84%
remaining binding at 0.071 µM (p38-alpha): 0.95%
remaining binding at 0.071 µM (TIE2): 32%
remaining binding at 0.071 µM (DCAMKL1): 89%
remaining binding at 0.071 µM (AKT1): 92%
remaining binding at 0.071 µM (SIK (SIK1)): 0.6%
remaining binding at 0.071 µM (MAPKAPK2): 85%
remaining binding at 0.071 µM (PLK3): 90%
